Values quoted from earlier work, collected in patent US10154669B2, “Improving color and release profile of resin compositions comprising silver nanoparticles” (The Board of Regents of the University of Texas System, priority 2013, dated 2018).

Conditions: in water

Structure (SMILES): C=C(C)C(=O)OC [methyl methacrylate]
- water solubility: about 1.6 g in 100 g of water
